Laboratory results as given in PMC6222509, “Dibasic Derivatives of Phenylcarbamic Acid against Mycobacterial Strains: Old Drugs and New Tricks?” (Molecules : A Journal of Synthetic Chemistry and Natural …, 2018).
≈ marks a conversion by molar mass, not a printed value. Read-outs that look alike come from different tables or passages of the source.

Key:
[1] = lipophilicity by isocratic RP-HPLC (log k, k, log kw, S); format: physicochemical; conditions: for log kw: extrapolated to 100% water from log k versus ϕM; for S (slope): slope of log k versus ϕM regression
Source text: Octadecyl-functionalized silica gel was currently used as a stationary phase (SPh) and a […] of two solvents at different volume ratios modified retention properties of the SPh. Liquid binary mixtures of methanol (MeOH) with water were employed as mobile phases (MPhs) in the isocratic RP-HPLC. The MeOH modifier was preferred because of similarity of both observed and extrapolated lipophilicity parameters with the ones determined in the octan-1-ol/water partition system, considering also sensitivity to H-bond donor properties of investigated compounds [41].
The modifier was applied in different volume concentrations, which varied from […] (v/v) with 5% increments. This interval was chosen due to very high lipophilicity of investigated salts. Practically, lower volume concentration of MeOH, i.e., less than 85% (v/v) in used MPhs, caused uncertainty of retention times (tr) due to notable peaks broadening, especially within subsets 1i–l and 1m–p. […] The highest tr parameters were found for the molecules 1k (tr = 47.108 min) and 1l (tr = 70.012 min) in the MPh containing 85% proportion (v/v) of MeOH (Table 2).
According to the authors’ opinions based on systematic scientific literature survey, a current research paper was the first, which aimed the log kw parameters of 2-/3-alkoxyphenylcarbamic acid derivatives containing two centers of protonation. The log kw values were extrapolated from intercepts of a relationship between log k and volume fraction of the MPh modifier (ϕM) using the Snyder–Soczewiński linear solvent strength model. The relationship was justified by R > 0.9900, Adj. R^2 > 0.9750 as well as F > 180.00 for calculation of particular log kw parameters (Table 3).
The HPLC separation module Waters e2695 equipped with a Waters 2996 PDA Detector (Waters Corp., Milford, MA, USA) and chromatographic column Symmetry C18 × 5 μm, 4.6 × 250 mm, Part No. W21751W016 (Waters Corp.) were used for estimation of lipophilic properties of the compounds 1a–p at 21 °C.
Isocratic elution was carried out using mobile phases consisting of methanol p.a. (MeOH; Honeywell, Paris, France) and purified water in various volume ratios (80:20, 85:15, 90:10, 95:5 (v/v) and pure MeOH, respectively). Distilled water (CentralChem, Bratislava, Slovak Republic) was purified by the Aquinity2 P10 ultra-pure water system for production of ultra-pure water with an integrated 10 L permeate tank (membraPure, Hennigsdorf, Germany).
Total flow of the column was 1.0 mL/min, injection volume was 4 μL and column temperature was set to 40 °C. The detection wavelengths varying from 236 nm to 238 nm were chosen for current experimental procedures.
Lipophilicity of the compounds 1a–p was determined by reversed-phase high-performance liquid chromatography (RP-HPLC). Methanol (MeOH)/water mobile phases with varying volume ratio of the organic modifier and water (80:20, 85:15, 90:10, 95:5 (v/v) and pure MeOH, respectively) were chosen.
A methanolic solution of potassium iodine was used for dead time (td) determination. Retention factors (capacity factors; k) were calculated according to Equation (17):k = (tr− td)/td(17) where tr was retention time of a solute (in min), the td parameter denoted dead time of potassium iodine, an unretained analyte (in min).
The observed retention (tr) and dead (td) times were means of three independent determinations. Average td values of potassium iodine in used MPhs were as follows: 2.237 min (MeOH/water ratio (v/v) was 80:20), 2.245 min (85:15), 2.245 min (90:10), 2.228 min (95:5) and 2.210 min (pure MeOH), respectively. […]

[2] = tested on: M. kansasii CNCTC My 235/80 (identical with ATCC 12478; MK 235/80); experiment: in vitro antimycobacterial MIC, dilution micromethod in Šula's semisynthetic medium; format: cell-based, Mycobacterium kansasii; conditions: Mycobacterium kansasii
[3] = mobile phase MeOH/water 80:20 (v/v)
[4] = mobile phase MeOH/water 85:15 (v/v)
[5] = mobile phase MeOH/water 90:10 (v/v)
[6] = mobile phase MeOH/water 95:5 (v/v)
[7] = ATCC12478, 168 h, 7-day cultivation, read-out: MIC MK 235/80 7-d
[8] = ATCC12478, 336 h, 14-day cultivation, read-out: MIC MK 235/80 14-d
[9] = ATCC12478, 504 h, 21-day cultivation, read-out: MIC MK 235/80 21-d
[10] = ATCC12478, 168 h, read-out: MIC MK 235/80 7-d
[11] = ATCC12478, 336 h, read-out: MIC MK 235/80 14-d
[12] = ATCC12478, 504 h, read-out: MIC MK 235/80 21-d

SMILES	log kw [1]	k (retention factor) [1, 3]	log k [1, 3]	k (retention factor) [1, 4]	log k [1, 4]	k (retention factor) [1, 5]	log k [1, 5]	k (retention factor) [1, 6]	log k [1, 6]	k (retention factor) ([1]; mobile phase pure MeOH)	log k ([1]; mobile phase pure MeOH)	S (slope) [1]	MIC [2, 7]	MIC [2, 8]	MIC [2, 9]	MIC [2, 10]	MIC [2, 11]	MIC [2, 12]	MIC ([2]; ATCC12478, read-out: MIC MK 235/80)
CCCCOc1ccccc1NC(=O)OC(CN(CCC)CCC)CN1CCCC1 (stereo not shown) [1a]	3.7688	5.2060	0.7165	3.7636	0.5756	2.4877	0.3958	1.5878	0.2008	0.9114	−0.0403	3.7768	62.5 µM (≈ 26.2 µg/mL)	62.5 µM (≈ 26.2 µg/mL)	62.5 µM (≈ 26.2 µg/mL)	–	–	–	–
CCCCCOc1ccccc1NC(=O)OC(CN(CCC)CCC)CN1CCCC1 (stereo not shown) [1b]	4.0454	6.6904	0.8254	4.6302	0.6656	3.2092	0.5064	1.9235	0.2841	1.0479	0.0203	3.9834	32 µM (≈ 13.9 µg/mL)	32 µM (≈ 13.9 µg/mL)	62.5 µM (≈ 27.1 µg/mL)	–	–	–	–
CCCCCCOc1ccccc1NC(=O)OC(CN(CCC)CCC)CN1CCCC1 (stereo not shown) [1c]	4.6049	10.4858	1.0206	6.5494	0.8162	4.0300	0.6053	2.3351	0.3683	1.3449	0.1287	4.4634	32 µM (≈ 14.3 µg/mL)	32 µM (≈ 14.3 µg/mL)	32 µM (≈ 14.3 µg/mL)	–	–	–	–
CCCCCCCOc1ccccc1NC(=O)OC(CN(CCC)CCC)CN1CCCC1.Cl.Cl (stereo not shown) [1d, 1-[2-[({[2-(heptyl-oxy)phenyl]amino}carbonyl)oxy]-3-(dipropylammonio)propyl]pyrrolidinium dichloride]	4.9487	12.8588	1.1092	7.7304	0.8882	5.0373	0.7022	2.5421	0.4052	1.4365	0.1573	4.7736	–	–	–	16 µM	16 µM	32 µM	–
CCCCOc1cccc(NC(=O)OC(CN(CCC)CCC)CN2CCCC2)c1 (stereo not shown) [1e]	4.0258	3.6174	0.5584	2.0811	0.3183	1.4054	0.1478	0.7155	−0.1454	0.5063	−0.2956	4.3434	32 µM (≈ 13.4 µg/mL)	32 µM (≈ 13.4 µg/mL)	32 µM (≈ 13.4 µg/mL)	–	–	–	–
CCCCCOc1cccc(NC(=O)OC(CN(CCC)CCC)CN2CCCC2)c1.Cl.Cl (stereo not shown) [1f, 1-[2-[({[3-(pentyloxy)phenyl]amino}carbonyl)oxy]-3-(dipropylammonio)propyl]-pyrrolidinium dichloride]	4.6722	4.5436	0.6574	3.0981	0.4911	1.7972	0.2546	0.8052	−0.0941	0.5113	−0.2913	4.9652	–	–	–	16 µM	16 µM	32 µM	–
CCCCCCOc1cccc(NC(=O)OC(CN(CCC)CCC)CN2CCCC2)c1 (stereo not shown) [1g]	4.9446	6.6896	0.8254	4.0776	0.6104	2.3329	0.3679	1.3128	0.1182	0.6213	−0.2067	5.1128	16 µM (≈ 7.16 µg/mL)	16 µM (≈ 7.16 µg/mL)	16 µM (≈ 7.16 µg/mL)	–	–	–	–
CCCCCCCOc1cccc(NC(=O)OC(CN(CCC)CCC)CN2CCCC2)c1.Cl.Cl (stereo not shown) [1h, 1-[2-[({[3-(heptyloxy)phenyl]amino}carbonyl)oxy]-3-(dipropylammonio)propyl]pyrrolidinium dichloride]	5.5384	8.9557	0.9521	5.1988	0.7159	2.8609	0.4565	1.6188	0.2092	0.6091	−0.2153	5.6830	–	–	–	8 µM	8 µM	8 µM	8 µM
CCCCOc1ccccc1NC(=O)OC(CN(CCC)CCC)CN1CCCCCC1 (stereo not shown) [1i]	4.4679	9.7297	0.9881	6.5358	0.8153	4.2073	0.6240	2.4854	0.3954	1.3198	0.1205	4.3102	32 µM (≈ 14.3 µg/mL)	62.5 µM (≈ 28 µg/mL)	62.5 µM (≈ 28 µg/mL)	–	–	–	–
CCCCCOc1ccccc1NC(=O)OC(CN(CCC)CCC)CN1CCCCCC1.O=C(O)C(=O)O (stereo not shown) [1j, 1-[2-[({[2-(Pentyloxy)phenyl]amino}carbonyl)oxy]-3-(dipropylammonio)propyl]-azepanium oxalate]	4.8466	12.1983	1.0863	7.9086	0.8981	4.8173	0.6828	2.8242	0.4509	1.3960	0.1449	4.6600	–	–	–	16 µM	32 µM	62.5 µM	–
CCCCCCOc1ccccc1NC(=O)OC(CN(CCC)CCC)CN1CCCCCC1 (stereo not shown) [1k]	5.2359	20.0586	1.3023	11.0255	1.0424	6.3650	0.8038	3.3274	0.5221	2.1394	0.3303	4.9286	16 µM (≈ 7.61 µg/mL)	32 µM (≈ 15.2 µg/mL)	62.5 µM (≈ 29.7 µg/mL)	–	–	–	–
